In data set [1] the target is T1, Mu-type opioid receptor (Cavia porcellus, UniProt P97266). Description: Agonist activity at MOR in Dunkin-Hartley guinea pig ileum assessed as inhibition of EFS-induced contractions incubated for 60 mins.
Data set [2] deals with Mu-type opioid receptor (Rattus norvegicus, UniProt P33535). As to the kind of experiment: Displacement of [3H]-DPN from rat MOR expressed in EE-HEK293 cell membranes by liquid scintillation counting.
A short description of data set [3]: Selectivity index, ratio of Ki for human KOR to Ki for rat MOR.
For data set [4], the species on record is Rattus norvegicus. As to the kind of experiment: Selectivity index, ratio of Ki for rat DOR to Ki for rat MOR.
The target in data set [5] is Delta-type opioid receptor (Rattus norvegicus, UniProt P33533). As to the kind of experiment: Displacement of [3H]-DPN from rat DOR expressed in EE-HEK293 cell membranes by liquid scintillation counting. On the technique in general: Displacement assays read how much labelled ligand stays bound in the presence of the test substance.
Data set [6] addresses T2, Kappa-type opioid receptor (Homo sapiens, UniProt P41145). As to the kind of experiment: Displacement of [3H]-DPN from human KOR expressed in EE-HEK293 cell membranes by liquid scintillation counting.
Data set [7] addresses T1, Mu-type opioid receptor. As to the kind of experiment: Antagonist activity at MOR in Dunkin-Hartley guinea pig ileum assessed as reduction in DAMGO-induced inhibition of EFS-induced contractions incubated for 60 mins. The data set is classed as tissue-based. To be noted: read-out: pA2 (converted).
Data set [8] has as its system Mus musculus. As to the kind of experiment: Reduction in morphine-induced antinociceptive effect in sc dosed Swiss […] mouse assessed as tail flick latencies dosed 45 mins before 5 mg/kg, sc morphine injection by tail flick test. To be noted: in vivo, 0.75 h. The data set is classed as ADME, organism-based. For orientation: In hot-plate and tail-flick tests a longer latency is read as antinociception.

Data set [9] concerns the target Delta-type opioid receptor (Mus musculus) (UniProt P32300). Description: (§1) Agonist activity at DOR in CD1 mouse vas deferens assessed as inhibition of EFS-induced contractions incubated for 60 mins. The data set is classed as tissue-based.
Data set [10] has as its target T2, Kappa-type opioid receptor. As to the kind of experiment: Activity at human KOR expressed in EE-HEK293 cells assessed as pEC50 for effect on (-)U50,488H-induced response (reference value: […] +/- […]). Format: cell-based.
The subject of data set [11] is Mus musculus. Description: Effect on basal tail flick latencies in Swiss […] mouse at 1 to 15 mg/kg, sc during 90 mins by tail flick test. Format: ADME, organism-based. The note with it: in vivo, 1.5 h.
In data set [12] the target is T3, Delta-type opioid receptor (Mus musculus, UniProt P32300). Description: Antagonist activity at DOR in CD1 mouse vas deferens assessed as reduction in DPDPE-induced inhibition of EFS-evoked contractions incubated for 60 mins. Format: tissue-based. To be noted: read-out: pA2 (converted).
Data set [13] deals with T3, Delta-type opioid receptor. The data set is described as §1. Format: tissue-based.

Consider eight compounds from ChEMBL document CHEMBL3797063, “Evaluation of N-substituent structural variations in opioid receptor profile of LP1” (Bioorg Med Chem, 2016).

The source made the active and inactive calls. The rule behind the calls is not given here.

T3 sequence (P32300 whole entry): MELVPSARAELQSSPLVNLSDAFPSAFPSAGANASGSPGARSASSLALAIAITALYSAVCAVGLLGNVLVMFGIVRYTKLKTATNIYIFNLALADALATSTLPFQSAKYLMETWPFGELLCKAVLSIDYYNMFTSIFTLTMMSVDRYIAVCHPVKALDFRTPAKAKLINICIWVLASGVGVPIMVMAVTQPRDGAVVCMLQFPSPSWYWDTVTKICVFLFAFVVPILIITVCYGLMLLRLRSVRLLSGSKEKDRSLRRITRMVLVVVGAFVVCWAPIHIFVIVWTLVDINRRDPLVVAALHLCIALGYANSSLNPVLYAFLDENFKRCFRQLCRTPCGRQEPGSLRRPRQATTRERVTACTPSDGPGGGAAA
T2 sequence (P41145 whole entry): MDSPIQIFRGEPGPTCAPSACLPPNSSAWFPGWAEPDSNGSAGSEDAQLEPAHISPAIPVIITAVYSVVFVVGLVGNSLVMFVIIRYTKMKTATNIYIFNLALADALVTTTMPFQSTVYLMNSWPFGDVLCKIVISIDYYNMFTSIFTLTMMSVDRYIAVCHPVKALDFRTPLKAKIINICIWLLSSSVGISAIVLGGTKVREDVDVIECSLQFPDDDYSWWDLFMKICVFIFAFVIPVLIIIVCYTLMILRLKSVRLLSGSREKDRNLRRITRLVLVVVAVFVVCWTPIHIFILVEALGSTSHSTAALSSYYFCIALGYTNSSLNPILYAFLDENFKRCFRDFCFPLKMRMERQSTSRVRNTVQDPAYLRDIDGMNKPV
Sequence of Mu-type opioid receptor (Rattus norvegicus, UniProt P33535) (P33535 whole entry): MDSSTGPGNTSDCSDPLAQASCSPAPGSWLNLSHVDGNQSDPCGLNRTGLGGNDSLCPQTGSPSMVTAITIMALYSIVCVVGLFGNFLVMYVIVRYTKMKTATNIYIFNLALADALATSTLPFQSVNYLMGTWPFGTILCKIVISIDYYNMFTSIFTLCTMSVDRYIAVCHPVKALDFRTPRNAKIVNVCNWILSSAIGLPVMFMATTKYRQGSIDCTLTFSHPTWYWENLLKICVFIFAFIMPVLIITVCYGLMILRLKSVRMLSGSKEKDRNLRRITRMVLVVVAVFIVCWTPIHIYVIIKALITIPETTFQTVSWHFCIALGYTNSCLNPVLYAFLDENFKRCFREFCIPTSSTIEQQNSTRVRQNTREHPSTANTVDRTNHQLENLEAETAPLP
Sequence of Delta-type opioid receptor (Rattus norvegicus, UniProt P33533) (P33533 whole entry): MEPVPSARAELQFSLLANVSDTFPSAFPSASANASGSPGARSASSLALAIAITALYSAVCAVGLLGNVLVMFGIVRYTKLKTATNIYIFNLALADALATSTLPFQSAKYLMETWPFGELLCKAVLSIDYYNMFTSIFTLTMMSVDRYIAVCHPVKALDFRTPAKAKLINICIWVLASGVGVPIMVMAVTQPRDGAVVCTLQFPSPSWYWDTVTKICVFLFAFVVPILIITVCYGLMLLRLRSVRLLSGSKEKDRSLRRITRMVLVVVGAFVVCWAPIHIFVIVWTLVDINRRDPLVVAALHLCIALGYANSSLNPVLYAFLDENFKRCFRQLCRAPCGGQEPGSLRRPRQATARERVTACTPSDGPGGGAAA
T1 sequence (P97266 whole entry): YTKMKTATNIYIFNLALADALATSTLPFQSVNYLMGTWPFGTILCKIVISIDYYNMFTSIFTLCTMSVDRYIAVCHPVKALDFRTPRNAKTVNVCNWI
Sequence of Delta-type opioid receptor (Mus musculus) (P32300 whole entry): as the sequence (P32300 whole entry) above

As to `C[C@@H](NC(=O)[C@@H](N)Cc1ccc(O)cc1)C(=O)NCC(=O)N(C)[C@@H](Cc1ccccc1)C(=O)NCCO` [DAMGO], the EC50 (commonly the concentration at which the effect is half-maximal) in data set [1] was 158 nM.

Regarding `C[C@H]1[C@H]2Cc3ccc(O)cc3[C@]1(C)CCN2CCC(=O)Nc1ccc2ncccc2c1`, the Ki (commonly a measure of affinity in units of concentration, obtained from inhibition or displacement) in data set [2] is 4560 nM; in [5], 330 nM; in [6], 4400 nM. In addition, the Ratio Ki in [3] turned out to be 1; in [4] it was 0.07.

Consider `C[C@H]1[C@H]2Cc3ccc(O)cc3[C@]1(C)CCN2CCC(=O)Nc1cccc2ccccc12`, for which the Kb was 2.51 nM in data set [7] and 25.1 nM in data set [12]. The Ki in [2] was 38 nM; in data set [5], 210 nM; in data set [6] it was 800 nM. For the same compound, the AD50 in data set [8] amounted to 2 mg/kg. The Activity entry was “Dose-dependent effect” in data set [8] and “Non-toxic” in data set [11]. In addition, in [9], the result was inactive. Also, the Ratio Ki in data set [3] amounted to 21.1; in [4], 5.5. In data set [10], the EC50 is 10000 nM.

As for `C[C@H]1[C@H]2Cc3ccc(O)cc3[C@]1(C)CCN2CCC(=O)Nc1cccc2cnccc12`, the Ki in data set [2] came out at 50 nM; in data set [5] it was 180 nM; in [6], 2900 nM. In addition, the EC50 was 158000 nM in data set [13] and 20000 nM in data set [1]. Besides, the Ratio Ki in data set [3] was 58; in data set [4] it was 3.6.

For `C[C@H]1[C@H]2Cc3ccc(O)cc3[C@]1(C)CCN2CCC(=O)Nc1cccc2cccnc12`, the values for the Ki in [2], in data set [5] and in [6] were 3410 nM, 540 nM and 230 nM, respectively. Also, the Ratio Ki in [3] worked out at 0.07; in [4], 0.16.

In the case of `C[C@H]1[C@H]2Cc3ccc(O)cc3[C@]1(C)CCN2CCC(=O)Nc1cccc2ncccc12`, the Ki in [2] is 3190 nM; in data set [5] it was 310 nM; in data set [6] it was 1540 nM. In addition, the Ratio Ki amounted to 0.5 in [3] and 0.1 in data set [4].

In the case of `C[C@H]1[C@H]2Cc3ccc(O)cc3[C@]1(C)CCN2CCC(=O)Nc1cnc2ccccc2c1`, the Ki in [2] was 1190 nM; in data set [5], 740 nM; in data set [6] it was 6470 nM. In addition, the results for the Ratio Ki in data set [3] and in [4] were 5.4 and 0.62, respectively.

With `C[C@H]1[C@H]2Cc3ccc(O)cc3[C@]1(C)CCN2CCC(=O)Nc1ccccc1`, the result in [9] was inactive. In addition, in data set [1], the EC50 was 794 nM. Further, the Ratio Ki worked out at 153 in data set [3] and 0.67 in data set [4]. The Kb in data set [12] is 63.1 nM.
